Results taken from patent US11254652B2, “Crystalline forms of N-(4-(4-(cyclopropymethyl)piperazine-1-carbonyl)phenyl)quinoline-8-sulfonamide” (Agios Pharmaceuticals, Inc., priority 2017, dated 2022).

Key:
Assay type in all cases: physicochemical
[1] = Humidity / desiccant exposure test followed by XRPD analysis; details: for XRPD after exposure to phosphorus pentoxide (P2O5) granules: one week
Protocol: FIG. 5 (i) depicts X-ray powder diffraction pattern (XRPD) overlay for crystalline hemisulfate salt Form A and after exposure to 11%, 48%, and 75% relative humidity and 40° C. for two weeks. […] FIG. 5 (ii) depicts XRPD overlay for crystalline hemisulfate salt Form A and after exposure to phosphorus pentoxide (P2O5) granules at room temperature and 50° C. for one week, as well as ambient temperature in a vial for 24 hrs.
(§1) The water content by Karl Fisher was about 5.3%. […] A DVS isotherm taken at 40° C. was essentially the same as the one at 25° C. […] Humidity test was conducted on Form A with exposure to 11%, 48%, and 75% relative humidity at 40° C. for 2 weeks followed by XRPD analysis. […] Crystallographic data for Form A is as follows:
(§2) Form D was determined to be anhydrous with a melting peak at 239° C. See e.g., FIG. 9. DVS of Pattern D was performed and solid picked up about 2% moisture from 2% to 95% relative humidity.

[2] = Solubility in MeOH:Water by slow heating to dissolve at fixed solvent volume; details: organic solvent or mixture, thermodynamic from solid
Protocol: Three solvent compositions were used as MeOH:Water (99:1 vol), (98:2) and (95:5). About 25 mg of Form A was weighed into 2 mL vial and 6 volume solvent was added, then slowly heated to dissolve. For experiment with 5% water, an additional test was conducted with 8 vol solvents.

[3] = Dynamic Vapor Sorption (DVS)
Protocol: Dynamic Vapor Sorption (DVS) was done using a DVS Intrinsic 1. The sample is loaded into a sample pan and suspended from a microbalance. A typical sample mass for DVS measurement is 25 mg. Nitrogen gas bubbled through distilled water provides the desired relative humidity. A typical measurement comprises the steps: • 1. Equilibrate at 50% RH • 2. 50% to 2%. (50%, 40%, 30%, 20%, 10% and 2%) • a. Hold minimum of 5 mins and maximum of 60 minutes at each humidity. The pass criteria is less than 0.002% change • 3. 2% to 95% (2%, 10%, 20%, 30%, 40%, 50%, 60%, 70%, 80%, 90%, 95%) • b. Hold minimum of 5 mins and maximum of 60 minutes at each humidity. The pass criteria is less than 0.002% change • 4. 95% to 2% (95%, 80%, 70%, 60%, 50%, 40%, 30%, 20%, 10%, 2%) • c. Hold minimum of 5 mins and maximum of 60 minutes at each humidity. The pass criteria is less than 0.002% change • 5. 2% to 50% (2%, 10%, 20%, 30%, 40%, 50%) • d. Hold minimum of 5 mins and maximum of 60 minutes at each humidity. The pass criteria is less than 0.002% change
as §1
Form B tends to hold substantial amount of solvent.
as §2

## O=C(c1ccc(NS(=O)(=O)c2cccc3cccnc23)cc1)N1CCN(CC2CC2)CC1 [Form A, 1-(cyclopropylmethyl)-4-(4-(quinoline-8-sulfonamido)benzoyl)piperazin-1-ium hemisulfate sesquihydrate]
[1]; 11%, 48%, and 75% relative humidity at 40° C. for 2 weeks
  XRPD after humidity test: remained unchanged
[1]; 50° C.
  XRPD after exposure to phosphorus pentoxide (P2O5) granules: slightly shifted
[1]; ambient for 24 hrs, changes reversible
  XRPD peaks after P2O5 at 50° C. then exposure to ambient: shifted back to original positions
[1]; room temperature
  XRPD after exposure to phosphorus pentoxide (P2O5) granules: no change
[2]; MeOH:Water (95:5), 6 vol, temperature when dissolution 60 ° C.
  Solubility: 167 mg/mL
[2]; MeOH:Water (95:5), 8 vol, temperature when dissolution 50 ° C.
  Solubility: 125 mg/mL
[2]; MeOH:Water (98:2), 6 vol, temperature when dissolution 35 ° C.
  Solubility: 167 mg/mL
[2]; MeOH:Water (99:1), 6 vol, temperature when dissolution 23 ° C.
  Solubility: > 167 mg/mL
[3]; 25° C., from 2% to 95% relative humidity
  moisture picked up in DVS: about 1.3%
[3]; Form A: DVS at 25° C. and 40° C., hemisulfate sesquihydrate
  XRPD after DVS: remained unchanged
